Experimental data from patent publication US20200165194A1, “ADDITIVE COMPOSITION FOR CULTURE MEDIUM, ADDITIVE COMPOUND FOR CULTURE MEDIUM, AND METHOD FOR CULTURE OF CELLS OR TISSUE USING SAME” (NISSAN CHEMICAL CORPORATION, priority 2017, published 2020).
Like-named read-outs stand apart in the source and are kept apart here.

What was measured:
Assay type in all cases: cell-based
[1] = system: human ovarian cancer cell line SKOV3; assay: Action on SKOV3 cell-1: 3D (deacylated gellan gum) and 2D culture, HB-EGF medium, ATP assay (Experimental Example 2); conditions: for viability at 0.5 µM / viability at 1 µM / viability at 5 µM / viability at 10 µM / viability at 20 µM: Homo sapiens, SK-OV-3, 96 h, 4 days, compound non-addition = 100%, read-out: relative value of RLU (number of viable cells)
Protocol: According to the method of patent document 1 (WO 2014/017513), a composition of McCoy's 5a medium (manufactured by Sigma-Aldrich) containing 0.015% (w/v) deacylated gellan gum (KELCOGEL CG-LA, manufactured by Sansho Co., Ltd.) and 15% (v/v) FBS, 100 ng/mL human HB-EGF (manufactured by PEPROTECH) was prepared by a homomixer. As a control, a non-addition medium composition not containing deacylated gellan gum was prepared. Then, human ovarian cancer cell line SKOV3 (manufactured by DS PHARMA BIO MEDICAL) was suspended in the above-mentioned medium composition added with deacylated gellan gum, and dispensed into the wells of a 384 well flat bottom Ultr-low Attachment surface microplate (manufactured by Corning Incorporated, #3827) at 1000 cells/40 μL/well (three-dimensional culture (3D)). In a single layer culture (2D), human ovarian cancer cell line SKOV3 was suspended in the above-mentioned medium is composition not containing deacylated gellan gum, and dispensed into the wells of a 384 well flat bottom microplate (manufactured by Corning Incorporated, #3712) at 400 cells/40 L per well. Each plate was cultured in a standing state in a CO2 incubator (37° C., 5% CO2). On day 1 of culture, the compound to be used in the present invention dissolved in dimethyl sulfoxide (DMSO) was added by 4.4 μL each at a final concentration of 0, 0.5, 1, 5, 10, 20 μM, and continuously cultured for 4 days. An ATP reagent (44.4 μL) (CellTiter-Glo (registered trade mark) Luminescent Cell Viability Assay, manufactured by Promega) was added to and suspended in the culture medium on day 5, and the suspension was stood for 15 min at room temperature. The luminescence intensity (RLU value) was measured by FlexStation3 (manufactured by Molecular Devices) and the luminescence value of the medium alone was subtracted to measure the number of viable cells.

[2] = system: human alveolar basal epithelial adenocarcinoma-derived cell line A549; assay: Various human cancer cells-1, 3D culture, WST-8 (Experimental Example 5); conditions: Homo sapiens, A549, 96 h, 4 days, read-out: number of viable cells, relative value to control (100%)
Text: (§1) Various human-derived cancer cells were precultured (single layer culture) in respective media shown below. Human uterus cervix cancer-derived cell line HeLa (manufactured by American Type Culture Collection (hereinafter indicated as ATCC), 10% fetal bovine serum (FBS, manufactured by Corning)-containing Dulbecco's Modified Eagle's Medium (hereinafter abbreviated as DMEM) (manufactured by Wako Pure Chemical Industries, Ltd.)), human malignant melanoma-derived cell line A375 (manufactured by ATCC, 10% FBS-containing DMEM), human epithelial-like cell cancer-derived cell line A431 (manufactured by ATCC, 10% FBS and 1% MEM non-essential amino acid solution (MEM Non-Essential Amino Acids solution (hereinafter abbreviated as NEAA) (manufactured by Wako Pure Chemical Industries, Ltd.))-containing Eagle's Minimum Essential Medium (hereinafter abbreviated as EMEM) (manufactured by Wako Pure Chemical Industries, Ltd.)), human stomach adenocarcinoma-derived cell line AGS (manufactured by DS PHARMA BIO MEDICAL, 10% FBS-containing Ham's F-12 (manufactured by Wako Pure Chemical Industries, Ltd.)), human prostate cancer-derived cell line LNCaP clone FGC (manufactured by ATCC, 10% FBS-containing RPMI1640 (manufactured by Wako Pure Chemical Industries, Ltd.)), human colon adenocarcinoma-derived cell line HCT116 (manufactured by DS PHARMA BIO MEDICAL, 10% FBS-containing McCoy's 5A Medium (manufactured by Sigma-Aldrich)), human alveolar basal epithelial adenocarcinoma-derived cell line A549 (manufactured by DS PHARMA BIO MEDICAL, 10% FBS-containing DMEM), human prostate cancer-derived cell DU145 (manufactured by ATCC, 10% FBS-containing EMEM). The above-mentioned cells in the logarithmic growth phase were washed with PBS, a 0.25 w/v % trypsin-1 mmol/L EDTA (ethylenediaminetetraacetic acid) solution (manufactured by Wako Pure Chemical Industries, Ltd.) was added, and adherent cells were detached by incubating at 37° C. for 1-5 min. Each medium was added and the mixture was centrifuged. After resuspension in the same medium, each cell was recovered.
(§2) The aforementioned various cells were suspended in respective deacylated gellan gum-containing or not containing media (deacylated gellan gum concentration was 0.015 w/v %, and 0.020 w/v % for RPMI1640 alone), and seeded in a 96 well low attachment U-bottom plate (manufactured by Corning, deacylated gellan gum-free medium), or a low attachment flat bottom plate (manufactured by Corning, deacylated gellan gum-containing medium) at a cell concentration of 1000-12000 cells/135 μL/well (all 3D culture). After static culture overnight in 37° C., 5% CO2 incubator, a DMSO solution of the compound to be used in the present invention was added to each medium at a final concentration of 5 μM or 10 μM. The amount of each compound solution to be added was 15 μL/well. As a control, a DMSO solution dissolved in a medium was added (DMSO final concentration 0.1%). After continuously culturing in an incubator at 37° C., 5% CO2 for 4 days, WST-8 solution (manufactured by DOJINDO LABORATORIES) was added at 15 μL/well, and the mixture was reacted in the same incubator for 1-2 hr. […] When compared with the compound no-addition (control), one showing a value of not more than 119% as -, one showing a value of not less than 120% as ◯, and one showing a value of not less than 150% as ⊚ are shown in the tenth table.

[3] = system: human colon adenocarcinoma-derived cell line HCT116; assay: as above; conditions: Homo sapiens, HCT-116, 96 h, low attachment U-bottom plate (gellan gum-free), 4 days, read-out: number of viable cells, relative value to control (100%)
Text: as §1, §2

[4] = system: human epithelial-like cell cancer-derived cell line A431; assay: as above; conditions: Homo sapiens, A-431, 96 h, low attachment U-bottom plate (gellan gum-free), 4 days, read-out: number of viable cells, relative value to control (100%)
Text: as §1, §2

[5] = system: human malignant melanoma-derived cell line A375; assay: as above; conditions: Homo sapiens, A-375, 96 h, 4 days, read-out: number of viable cells, relative value to control (100%)
Text: as §1, §2

[6] = system: human prostate cancer-derived cell DU145; assay: as above; conditions: Homo sapiens, DU-145, 96 h, 4 days, read-out: number of viable cells, relative value to control (100%)
Text: as §1, §2

[7] = system: human prostate cancer-derived cell line LNCaP clone FGC; assay: as above; conditions: 4 days
Text: as §1, §2

[8] = system: human stomach adenocarcinoma-derived cell line AGS; assay: as above; conditions: Homo sapiens, 96 h, 4 days, read-out: number of viable cells, relative value to control (100%)
Text: as §1, §2

[9] = system: human uterus cervix cancer-derived cell line HeLa; assay: as above; conditions: Homo sapiens, 96 h, low attachment U-bottom plate (gellan gum-free), 4 days, read-out: number of viable cells, relative value to control (100%)
Text: as §1, §2

[10] = 3D culture (deacylated gellan gum)
[11] = low attachment U-bottom plate (gellan gum-free)
[12] = low attachment flat bottom plate (gellan gum medium)

**Q.** Which results are given for `CC/C(=N\NC(=O)Nc1ccccc1)c1ccc(O)c(C)c1O` [k-1:H-10]?
**A.** viability at 0.5 µM ([1]; 2D single layer culture): 111%; viability at 1 µM ([1]; 2D single layer culture): 108%; viability at 5 µM ([1]; 2D single layer culture): 102%; viability at 10 µM ([1]; 2D single layer culture): 99%; viability at 20 µM ([1]; 2D single layer culture): 66%; viability at 0.5 µM [1, 10]: 120%; viability at 1 µM [1, 10]: 120%; viability at 5 µM [1, 10]: 128%; viability at 10 µM [1, 10]: 138%; viability at 20 µM [1, 10]: 129%; cell proliferation promoting effect (in words) ([1]; single layer culture (2D) of SKOV3 cells): a favorable cell proliferation promoting effect was not observed; cell proliferation promoting effect (in words) ([1]; three-dimensional culture (3D) of SKOV3 cells): exhibited cell proliferation promoting effect at a wide concentration range; viability at 5 µM [2, 11]: < 119%; viability at 10 µM [2, 11]: < 119%; viability at 5 µM [2, 12]: 120 to 150%; viability at 10 µM [2, 12]: 120 to 150%; viability at 5 µM ([3]; 5 μM): < 119%; viability at 10 µM ([3]; 10 μM): < 119%; viability at 5 µM ([4]; 5 μM): < 119%; viability at 10 µM ([4]; 10 μM): < 119%; viability at 5 µM [5, 11]: < 119%; viability at 10 µM [5, 11]: 120 to 150%; viability at 5 µM [5, 12]: < 119%; viability at 10 µM [5, 12]: < 119%; viability at 5 µM [6, 11]: 120 to 150%; viability at 10 µM [6, 11]: < 119%; viability at 5 µM [6, 12]: < 119%; viability at 10 µM [6, 12]: 120 to 150%; viability at 5 µM ([7]; Homo sapiens, LNCaP-Clone-FGC, 96 h, low attachment U-bottom plate (gellan gum-free), read-out: number of viable cells, relative value to control (100%)): 120 to 150%; viability at 5 µM ([7]; Homo sapiens, LNCaP-Clone-FGC, 96 h, low attachment flat bottom plate (gellan gum medium), read-out: number of viable cells, relative value to control (100%)): < 119%; viability at 10 µM ([7]; Homo sapiens, LNCaP-Clone-FGC, 96 h, low attachment flat bottom plate (gellan gum medium), 10 μM, read-out: number of viable cells, relative value to control (100%)): < 119%; number of viable cells, relative value to control (100%) ([7]; low attachment U-bottom plate (gellan gum-free), 10 μM): ⊙; viability at 5 µM [8, 11]: 120 to 150%; viability at 10 µM [8, 11]: < 119%; viability at 5 µM [8, 12]: < 119%; viability at 10 µM [8, 12]: < 119%; viability at 5 µM ([9]; 5 μM): < 119%; viability at 10 µM ([9]; 10 μM): < 119%
